Columns and labels:
Assay type in all cases: cell-based
[1] = tested on: E-cad expression in H157 cells; assay: E-cad expression after HDAC inhibitor treatment; details: 24 hours after treatment with 4 or 10 μM MS-275
Protocol: (§1) RNA, Primers, and Quantitative Real-Time RT-PCR. Total RNA was prepared from NSCLC cell lines using the RNAeasy (Qiagen). During the preparation all samples were treated with RNase-free DNase 1 (10 mg/ml, Qiagen) prior to cDNA synthesis. cDNA was synthesized as part of the RT-PCR reaction from […] total RNA. Quantitative Real-Time RT-PCR assays were performed using the SYBR Green RT-PCR Kit (Qiagen) using a GeneAmp 5700 Sequence Detector (Applied Biosystems), which allows amplification and detection (by fluorescence) in the same tube, using a kinetic approach. Amplification data were analyzed by using GENEAMP 5700 SDS software, converted into cycle numbers at a set cycle threshold (Ct values) and quantified in relation to a standard. Human adult-lung (Clontech Lab. Inc) or human fetal-lung RNA (Stratagene) was used as standards in all the experiments. Standards were used at […]. In each experiment a no-template control was used as a control. To normalize for the amount of input cDNA, the quantified relative amount of the generated product was divided by the amount generated for the housekeeping gene beta-Actin. All samples were performed in triplicates.
(§2) Expression of E-cad was evaluated in these cell lines.

[2] = tested on: E-cad expression in H460 cells; assay: E-cad expression after HDAC inhibitor treatment; details: 24 hours after treatment with 4 or 10 μM MS-275
Protocol: as §1, §2

[3] = tested on: E-cad expression in H520 cells; assay: E-cad expression after HDAC inhibitor treatment; details: 24 hours after treatment with 4 or 10 μM MS-275
Protocol: as §1, §2

[4] = tested on: 1483 head & neck cancer cell line; assay: Modified MTT growth inhibition assay; details: SNDX275 added as first drug
Protocol: (§3) Combination administrations were performed as sequential treatments where the HDAC inhibitor was administer prior to the EGFR inhibitor, or simultaneous treatments in selected cell lines. Concentrations of HDAC inhibitors and EGFR inhibitors are indicated as μM concentrations in all experiments. SNDX275 was administered in three increasing concentrations, with a variety of ranges depending upon the cell line.
(§4) Drugs were diluted in fresh medium before each experiment, and the final DMSO concentration was <0.1%. Growth inhibition was assessed using a modified MTT assay. 2×10^3 cells were plated in each well of 96-well flat-bottomed microtiter plates and drugs were added the next day. […] The microtiter plates were incubated for 4 hours at 37° C. The visible absorbance of each well was measured using an automated plate reader (Molecular Devices, Sunnyvale, Calif.), and data were analyzed using SlideWrite to determine the drug IC50.

[5] = tested on: 584 head & neck cancer cell line; assay: Modified MTT growth inhibition assay; details: SNDX275 added as first drug
Protocol: as §3, §4

[6] = tested on: Detroit562 head & neck cancer cell line; assay: Modified MTT growth inhibition assay
Protocol: as §3, §4

[7] = tested on: FaDu head & neck cancer cell line; assay: Modified MTT growth inhibition assay
Protocol: as §3, §4

[8] = tested on: HPAFII pancreatic cancer cell line; assay: Modified MTT growth inhibition assay; details: SNDX275 added as first drug
Protocol: as §3, §4

[9] = tested on: HS766T pancreatic cancer cell line; assay: Modified MTT growth inhibition assay
Protocol: as §3, §4

[10] = tested on: MSK2922 head & neck cancer cell line; assay: Modified MTT growth inhibition assay; details: SNDX275 added as first drug
Protocol: as §3, §4

[11] = tested on: Panc02.03 pancreatic cancer cell line; assay: Modified MTT growth inhibition assay; details: Panc 02.03
Protocol: as §3, §4

[12] = tested on: Panc03.27 pancreatic cancer cell line; assay: Modified MTT growth inhibition assay; details: Panc 03.27, both drugs added at the same time
Protocol: as §3, §4

[13] = tested on: Panc04.03 pancreatic cancer cell line; assay: Modified MTT growth inhibition assay; details: Panc 04.03
Protocol: as §3, §4

[14] = tested on: UMSCC19 head & neck cancer cell line; assay: Modified MTT growth inhibition assay
Protocol: as §3, §4

[15] = tested on: UMSCC22B head & neck cancer cell line; assay: Modified MTT growth inhibition assay
Protocol: as §3, §4

[16] = SNDX275 0.60 μM alone, SNDX275 added as first drug
[17] = SNDX275 0.60 μM alone, both drugs added at the same time
[18] = SNDX275 2.00 μM alone, SNDX275 added as first drug
[19] = SNDX275 2.00 μM alone, both drugs added at the same time
[20] = SNDX275 1.0 μM alone, SNDX275 added as first drug
[21] = SNDX275 1.0 μM alone, both drugs added at the same time
[22] = SNDX275 6.0 μM alone, SNDX275 added as first drug
[23] = SNDX275 6.0 μM alone, both drugs added at the same time
[24] = SNDX275 0.6 μM alone, both drugs added at the same time
[25] = SNDX275 3.0 μM alone, SNDX275 added as first drug
[26] = SNDX275 3.0 μM alone, both drugs added at the same time

Nc1ccccc1NC(=O)c1ccc(CNC(=O)OCc2cccnc2)cc1 [MS-275]
upregulation of E-cad expression [1]: Eight to twelve fold
upregulation of E-cad expression [2]: Eight to twelve fold
upregulation of E-cad expression [3]: Eight to twelve fold
surviving ([4]; SNDX275 0.6 μM alone): 79.246%
surviving ([4]; SNDX275 2.0 μM alone): 51.509%
surviving ([4]; SNDX275 3.0 μM alone): 31.776%
surviving ([5]; SNDX275 0.3 μM alone): 84.045%
surviving ([5]; SNDX275 1.0 μM alone): 45.516%
surviving ([5]; SNDX275 2.0 μM alone): 20.656%
surviving ([6]; SNDX275 0.06 μM alone, SNDX275 added as first drug): 75.017%
surviving ([6]; SNDX275 0.06 μM alone, both drugs added at the same time): 79.829%
surviving [6, 16]: 58.925%
surviving [6, 17]: 72.276%
surviving [6, 18]: 23.887%
surviving [6, 19]: 28.832%
surviving ([7]; SNDX275 0.30 μM alone, SNDX275 added as first drug): 69.008%
surviving ([7]; SNDX275 0.30 μM alone, both drugs added at the same time): 87.506%
surviving [7, 16]: 48.451%
surviving [7, 17]: 73.418%
surviving [7, 18]: 20.262%
surviving [7, 19]: 30.504%
surviving ([8]; SNDX275 0.10 μM alone): 74.635%
surviving ([8]; SNDX275 0.30 μM alone): 42.098%
surviving ([8]; SNDX275 1.00 μM alone): 28.287%
surviving [9, 20]: 77.851%
surviving [9, 21]: 78.939%
surviving [9, 22]: 40.175%
surviving [9, 23]: 55.038%
surviving ([9]; SNDX275 10.0 μM alone, SNDX275 added as first drug): 77.851%
surviving ([9]; SNDX275 10.0 μM alone, both drugs added at the same time): 32.797%
surviving ([10]; SNDX275 0.3 μM alone): 68.519%
surviving ([10]; SNDX275 0.6 μM alone): 42.857%
surviving ([10]; SNDX275 1.0 μM alone): 24.438%
surviving ([11]; SNDX275 0.6 μM alone, SNDX275 added as first drug): 71.569%
surviving [11, 24]: 44.980%
surviving [11, 20]: 34.220%
surviving [11, 21]: 34.529%
surviving [11, 25]: 24.323%
surviving [11, 26]: 25.444%
surviving ([12]; SNDX275 0.10 μM alone): 78.263%
surviving ([12]; SNDX275 2.00 μM alone): 38.926%
surviving ([12]; SNDX275 6.00 μM alone): 21.757%
surviving ([13]; SNDX275 0.3 μM alone, SNDX275 added as first drug): 71.205
surviving [13, 24]: 63.051%
surviving [13, 20]: 49.175
surviving [13, 21]: 28.676%
surviving [13, 25]: 37.954
surviving [13, 26]: 25.551%
surviving ([14]; SNDX275 0.60 μM alone, SNDX275 added as first drug (first table)): 73.417%
surviving ([14]; SNDX275 0.60 μM alone, SNDX275 added as first drug (second table)): 83.778%
surviving ([14]; SNDX275 2.00 μM alone, SNDX275 added as first drug (first table)): 54.951%
surviving ([14]; SNDX275 2.00 μM alone, SNDX275 added as first drug (second table)): 46.466%
surviving ([14]; SNDX275 6.00 μM alone, SNDX275 added as first drug (first table)): 24.242%
surviving ([14]; SNDX275 6.00 μM alone, SNDX275 added as first drug (second table)): 37.033%
surviving [15, 20]: 73.156%
surviving [15, 21]: 76.730%
surviving ([15]; SNDX275 2.0 μM alone, SNDX275 added as first drug): 55.978%
surviving ([15]; SNDX275 2.0 μM alone, both drugs added at the same time): 63.169%
surviving [15, 22]: 25.180%
surviving [15, 23]: 55.057%

From patent US20120141479A1, “Histone Deacetylase Inhibitors Sensitize Cancer Cells To Epidermal Growth Factor Inhibitors” (priority 2007, published 2012)
